{"source": "patent US8410045B2", "about": "“Camptothecin-peptide conjugates and pharmaceutical compositions containing the same” (Drais Pharmaceuticals, Inc., priority 2006, dated 2013)", "key": {"[1]": {"system": "HT-29 colorectal carcinoma", "assay": "Antitumor efficacy in HT-29 colorectal carcinoma model in nude mice", "format": "in vivo", "details": "Table 7"}, "[2]": {"assay": "Stability of conjugates in citrated plasma at 37° C. (half life time, HPLC fluorescence)", "format": "in vitro ADME, human", "details": "for half-life: human, plasma", "outline": "(§1)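 Conjugates at 2.55 μM incubated at 37° C in citrated plasma of several species, including human and dog. After TFA/acid extraction, released free camptothecin derivative (e.g. SN38) measured by reversed-phase C18 HPLC with fluorescence detection; half-life taken as time to 50 mol% release.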"}, "[3]": {"system": "MDA-MB-231 mammary carcinoma", "assay": "Antitumor efficacy in MDA-MB-231 mammary carcinoma model in nude mice", "format": "in vivo", "details": "Table 7, i.v. Q2D3 × 3 W"}, "HT-29 tumors": {"system": "HT-29 tumors", "assay": "Combination of DPV1047-BCH-SN38 with 5-FU or bevacizumab in the HT-29 tumor model", "details": "i.v.", "experimental": "Mice were implanted with HT-29 tumors and treated by intraperitoneal administration (bevacizumab) or bolus intravenous injection (5-FU or DPV1047-BCH-SN38) at 10 μL/g. […] The T/C ratio was calculated following treatment with either bevacizumab, 5-FU or DPV1047-BCH-SN38. These T/C ratios were used to evaluate the expected T/C for combined treatment with bevacizumab and DPV1047-BCH-SN38, or 5-FU and DPV1047-BCH-SN38 (T/C of DPV1047-BCH-SN38×T/C of bevacizumab or 5-FU). […] The combination index of the two molecules was calculated by dividing the expected T/C by the observed T/C."}, "[4]": {"assay": "Stability of conjugates in citrated plasma at 37° C. (half life time, HPLC fluorescence)", "format": "in vitro ADME", "details": "DPV1047-linker-SN38, 2.55 μM", "protocol": "The stability of the conjugates was tested in citrated plasma (10% (v/v) sodium citrate buffer, 0.106M) from different species (see Table 1 below). The conjugates at 2.55 μM were incubated at 37° C. in plasma. Samples were analysed using the HPLC fluorescence method described below (see chromatographic equipment and conditions) following TFA/acetonitrile extraction and the amount of free camptothecin, analogs or derivatives thereof (e.g. SN38) released by the conjugates was measured.\nChromatographic equipment and conditions: 150 μL of each sample were placed in 1.5 mL micro-centrifuge tubes. 450 μL of 5% (v/v) TFA in H2O was added to each tube and the mixture was vortexed for 5 seconds. Samples were then centrifuged at 16000 g, 3 minutes at +4° C. 100 μL of supernatant were placed in 1.5 mL micro-centrifuge tubes. Methanol (100 μL) was then immediately added and vortexed for 5 seconds. Samples were then centrifuged at 16000 g, 3 minutes at room temperature. 150 μL of supernatant were recovered for HPLC analysis. Conjugates, metabolites and camptothecin derivative (i.e. SN38) were separated by high-performance liquid chromatography (HPLC; Agilent 1100 series equipped with a fluorescence detector) using a 4.6×100 mm ([…] particle size) Luna C18(2) column (Phenomenex ref. 00D-4251-E0, Le Pecq, France). The aqueous component of the mobile phase (A) was 0.1% (v/v) TFA in water. The organic modifier (B) was acetonitrile containing 0.1% (v/v) TFA. For the conjugate and its metabolites an elution gradient increasing linearly the proportion of B from 15 to 37% in 2 min, from 37 to 47% in 6 min, followed by 2 min at 90% was applied with a constant flow rate of 1.2 mL/min. The proportion of B was then returned to the initial condition for 3.0 min.\nThe half life time of conjugate corresponds to the time necessary to have 50% by mole of free camptothecin, analogs or derivatives thereof released by the conjugates of the invention. In human plasma, the half life time of conjugate DPV1047-linker #1-SN38 (less than 5 mins) was shorter than that of conjugate DPV1047-linker #2-SN38 (6-7 mins), which, in turn, was shorter than that of conjugate DPV1047-linker #3-SN38 (12 mins)."}, "[5]": {"assay": "Stability of conjugates in citrated plasma at 37° C. (half life time, HPLC fluorescence)", "format": "in vitro ADME", "details": "dog", "outline": "as §1"}, "NCI-H460 lung carcinoma": {"system": "NCI-H460 lung carcinoma", "assay": "Antitumor efficacy in NCI-H460 lung carcinoma model in nude mice", "details": "Table 7, i.v. Q2D3 × 3 W"}, "[6]": {"system": "LS 174T human colorectal carcinoma tumor", "assay": "Antitumor efficacy in human LS 174T xenograft colon tumor model implanted in nude rats", "format": "in vivo", "protocol": "The LS 174T study was performed using female nude rats (8 weeks old) purchased from Harlan breeding center (Gannat, France). LS 174T tumors were established by a subcutaneously implantation of cell (ATCC Number: CCl-188) suspensions in the right flank of the animals. The first injection of drugs was performed when the tumors reached a size of about 1000 mm^3. The tumor volume was calculated using the following formula: [length×width^2]/2."}, "[7]": {"assay": "Pharmacokinetic study in the dog (blood, HPLC fluorescence)", "format": "in vivo", "protocol": "Peripheral blood samples were taken at different times following infusion for pharmacokinetic analysis.\nBlood samples (2.5 mL) were collected in 5 mL in trisodium citrate tubes (Sarstedt S-Monovette® 9NC) containing 2.5 mL of 5% TFA (v/v) and vortexed for 5 seconds before storage at −80° C. (for less than two weeks).\nSamples were then analyzed after a TFA and acetonitrile extraction by an HPLC fluorescence method, described below. […] Whole blood samples were acidified with TFA to protect the ester link of the conjugate against hydrolysis and allow protein precipitation to improve conjugate and SN38 recovery.\nFive hundred microliters of each sample were then placed in 1.5 mL micro-centrifuge tubes to and centrifuged at 16000×g 3 min at +4° C. […] Methanol (100 μL) was then immediately added and the mixture stirred vigorously (vortex) for 5 seconds. Samples were then centrifuged at 16000×g, 3 min at room temperature.\nOne hundred and fifty microliters of the supernatant was recovered for HPLC analysis.\nDPV1047-BCH-SN38 and its metabolite SN38 were separated by high-performance liquid chromatography (HPLC Agilent 1100 with a fluorescence detector) using the following method: […]"}, "[8]": {"details": "Table 4, 20 (cumulative 100) μmol/kg, i.v. bolus, Q3/4Dx5"}, "[9]": {"details": "Table 7, i.v. Q4D × 5, 10 μmol/kg"}, "[10]": {"details": "Table 7, i.v. Q4D × 5, 20 μmol/kg"}}, "note": "Like-named read-outs stand apart in the source and are kept apart here. Marks after values point to notes of the source that are not given here.", "data": [{"smiles": "CCc1c2c(nc3ccc(OC(=O)[C@H]4CC[C@H](CNC(=O)C5CCC(CN6C(=O)CC(SC[C@H](N)C(=O)N[C@H](C(=O)N[C@@H](CCCCN)C(=O)N[C@@H](CCCNC(=N)N)C(=O)NCC(=O)N[C@@H](CC(C)C)C(=O)N[C@@H](CCCCN)C(=O)N[C@@H](CC(C)C)C(=O)N[C@@H](CCCNC(=N)N)C(=O)N[C@@H](Cc7c[nH]cn7)C(=O)N[C@H](C(=O)N[C@@H](CCCNC(=N)N)C(=O)N7CCC[C@H]7C(=O)N[C@@H](CCCNC(=N)N)C(=O)N[C@H](C(=O)N[C@H](C(=O)N[C@@H](CCCNC(=N)N)C(=O)N[C@@H](CCSC)C(=O)N[C@@H](CC(=O)O)C(=O)N[C@H](C(=O)O)C(C)C)[C@@H](C)O)C(C)C)C(C)C)C(C)C)C6=O)CC5)CC4)cc13)-c1cc3c(c(=O)n1C2)COC(=O)[C@]3(O)CC", "note": "(single isomer, unassigned) [DPV1047-BCH-SN38]", "values": [{"measurement": "Optimal T/C %", "setting": "[1]; i.v. Q4D × 3, 12.5 μmol/kg", "result": 66.8, "unit": "%"}, {"measurement": "TGI %", "setting": "[1]; i.v. Q4D × 3, 12.5 μmol/kg", "result": 33.2, "unit": "%"}, {"measurement": "Optimal T/C %", "setting": "[1]; i.v. Q4D × 3, 25 μmol/kg", "result": 39.2, "unit": "%"}, {"measurement": "TGI %", "setting": "[1]; i.v. Q4D × 3, 25 μmol/kg", "result": 60.8, "unit": "%"}, {"measurement": "half life time, times longer than the DPV1047-linker #2-SN38 conjugate", "setting": "[2]; human plasma", "result": 60, "unit": "times"}, {"measurement": "half-life", "setting": "[2]; DPV1047-linker-SN38, 2.55 μM, citrated plasma, read-out: Half life time, Human plasma", "result": 6.67, "unit": "h"}, {"measurement": "half-life", "setting": "[2]; Table 10, SN38 conjugates, read-out: Human Plasma Half life time", "result": 6, "unit": "h"}, {"measurement": "half-life", "setting": "[2]; Table 12, CPP-linker #5-SN38 conjugates incl. D conformation, read-out: Human Plasma Half life time", "result": 6.37, "unit": "h"}, {"measurement": "Optimal T/C %", "setting": "[3]; 12.5 μmol/kg", "result": 34.1, "unit": "%"}, {"measurement": "TGI %", "setting": "[3]; 12.5 μmol/kg", "result": 65.9, "unit": "%"}, {"measurement": "Optimal T/C %", "setting": "[3]; 25 μmol/kg", "result": 30.1, "unit": "%"}, {"measurement": "TGI %", "setting": "[3]; 25 μmol/kg", "result": 69.9, "unit": "%"}, {"measurement": "Single treatment DPV1047-BCH-SN38 T/C %", "setting": "HT-29 tumors; 12.5 μmol/kg, 5-FU combination experiment", "result": 68, "unit": "%"}, {"measurement": "Single treatment DPV1047-BCH-SN38 T/C %", "setting": "HT-29 tumors; 12.5 μmol/kg, bevacizumab combination experiment", "result": 77, "unit": "%"}, {"measurement": "Single treatment DPV1047-BCH-SN38 T/C %", "setting": "HT-29 tumors; 25 μmol/kg, 5-FU combination experiment", "result": 50, "unit": "%"}, {"measurement": "Single treatment DPV1047-BCH-SN38 T/C %", "setting": "HT-29 tumors; 25 μmol/kg, bevacizumab combination experiment", "result": 69, "unit": "%"}, {"measurement": "half-life", "setting": "[4]; time to 50% by mole free SN38 released, read-out: Half life time, Mouse plasma", "result": "< 0.05", "unit": "h"}, {"measurement": "half-life", "setting": "[4]; monkey", "result": 4.83, "unit": "h"}, {"measurement": "half-life", "setting": "[4]; rat", "result": 0.233, "unit": "h"}, {"measurement": "half-life", "setting": "[5]; DPV1047-linker-SN38, 2.55 μM, citrated plasma, read-out: Half life time, Dog plasma", "result": 4.5, "unit": "h"}, {"measurement": "half-life", "setting": "[5]; Table 10, SN38 conjugates, read-out: Dog Plasma Half life time", "result": 4.33, "unit": "h"}, {"measurement": "half-life", "setting": "[5]; Table 12, CPP-linker #5-SN38 conjugates incl. D conformation, read-out: Dog Plasma Half life time", "result": 4, "unit": "h"}, {"measurement": "Optimal T/C %", "setting": "NCI-H460 lung carcinoma; 12.5 μmol/kg", "result": 47.5, "unit": "%"}, {"measurement": "TGI %", "setting": "NCI-H460 lung carcinoma; 12.5 μmol/kg", "result": 52.5, "unit": "%"}, {"measurement": "Optimal T/C %", "setting": "NCI-H460 lung carcinoma; 25 μmol/kg", "result": 22.9, "unit": "%"}, {"measurement": "TGI %", "setting": "NCI-H460 lung carcinoma; 25 μmol/kg", "result": 77.1, "unit": "%"}, {"measurement": "Minimal T/C (%)", "setting": "[6]; [8]", "result": 43, "unit": "%"}, {"measurement": "TGI %", "setting": "[6]; [8]", "result": "57*** %"}, {"measurement": "Optimal T/C %", "setting": "[6]; [9]", "result": 47.2, "unit": "%"}, {"measurement": "TGI %", "setting": "[6]; [9]", "result": 52.8, "unit": "%"}, {"measurement": "Optimal T/C %", "setting": "[6]; [10]", "result": 42.8, "unit": "%"}, {"measurement": "TGI %", "setting": "[6]; [10]", "result": 57.2, "unit": "%"}, {"measurement": "circulating half life time in the blood compared to DPV1047-MIC-SN38", "setting": "[7]; dog blood (FIG. 2)", "result": "longer"}, {"measurement": "AUC of SN38 compared to DPV1047-MIC-SN38", "setting": "[7]; dog blood, equimolar dose (FIG. 1)", "result": "significantly greater"}, {"measurement": "SN38 Cmax and AUC versus dose of the conjugate", "setting": "[7]; dog blood, non-toxic doses (DPV1047-BCH-SN38 ≦20 mg/kg, DPV1047-MIC-SN38 ≦50 mg/kg)", "result": "increased linearly with the dose"}]}]}
